Marks after values point to notes of the source that are not given here.
Tests used:
[1] = system: P. falciparum strain D6 (sensitive to chloroquine and pyrimethamine); experiment: [3H]-hypoxanthine growth inhibition assay, P. falciparum D6; format: cell-based; conditions: Plasmodium falciparum; P. falciparum D6, [3H]-hypoxanthine incorporation; read-out: D6 IC50
Method: (§1) The potential for antimalarial activity against Plasmodium falciparum was determined by measuring the incorporation of tritiated hypoxanthine into parasitized red blood cells.
(§2) Stock solutions of the test compounds and the reference drug chloroquine (CQ) (Sigma Chemicals C-6628, Lot #059H0919) were prepared in silanized glass vials with AquaSil™ (Pierce, USA) to minimize absorption of the compounds to glassware. All test compounds were dissolved in DMSO (Sigma Cat No. # D8418) to 1 mM concentration, whereas CQ was dissolved in 50% methanol at a concentration of 1.6 mg/ml (base). Stock solutions were stored at −20° C.
(§3) The P. falciparum laboratory adapted strains utilized in this project (Table 1) were in vitro cultured and routinely maintained in RPMI-1640-LPLF complete medium, which contained low concentrations of para-amino benzoic acid (0.0005 mg/L) and folic acid (0.01 mg/L).
(§4) The low concentration of folic acid in RPMI-1640-LPLF prevents inhibition of the compound if its activity targets the parasite's folate metabolic pathway. Parasites were cultured in human red blood cells (RBCs) in vitro at 37° C. in special gas mixture (5% O2, 5% CO2 and 90% N2) as described Trager and Jensen (1979 Science 193:673-675).
(§5) Base cultivation medium consisted of 10.4 g/L RPMI-1640-LPLF powder (Gibco BRL), 5.97 g/L HEPES buffer (MP Biomedicals, USA), 2.0 g/L D-glucose (BDH chemicals, Australia), 0.05 g/L hypoxanthine (Sigma, USA) and 40 mg/L gentamycin (Pfizer, Australia). The pH of the medium was adjusted to 6.9 and the solution was filtered using 0.2 μm pore size (AcroCap, Gelman Science, USA). […] For [^3H]-hypoxanthine inhibition growth assay, RPMI-1640-LPLF complete medium which lacked [^3H]-hypoxanthine ([^3H]-RPMI-1640-LPLF) was used to prevent uptake of hypoxanthine by parasites, as radioactive hypoxanthine uptake is measured as a surrogate marker of growth. […]
(§6) Red blood cells (RBC) were required for P. falciparum parasites to proliferate in vitro. […] Following the final wash, the haematocrit was measured as the percent of RBC to total culture volume. […]

[2] = system: P. falciparum strain W2 (resistant to chloroquine and pyrimethamine); experiment: [3H]-hypoxanthine growth inhibition assay, P. falciparum W2; format: cell-based; conditions: Plasmodium falciparum; P. falciparum W2, [3H]-hypoxanthine incorporation; read-out: W2 IC50
Method: as §1, §2, §3, §4, §5, §6

[3] = system: Plasmodium berghei (KBG-173 strain); experiment: Plasmodium berghei assay in vivo (modified Thompson Test), survival of infected mice; parameters: species or system Charles River CD-1 mice; conditions: oral bid on days 3, 4 and 5; for Average Days Survival: 31 day experiment
Method: In vivo antimalarial activity was tested in male or female Charles River CD-1 mice that were 4-5 weeks old and weighed 20-25 g They were housed in groups of 3 or 4 in standard plastic cages with wire tops, Bed-o-cob® bedding, 12 hr/day of light, and maintained at 75° F. They were fed a standard Ralston Purina mouse chow and the cages and bottles were changed twice a week. Test compounds were ground in a mortar and pestle and diluted with enough vehicle to give a volume of 10 mL/kg of mouse weight. The oral doses were prepared in 0.5% hydroxyethylcellulose (Union Carbide Corp. WP 4400)/0.1% Tween-80 (Fisher Scientific T164-500). The amount of drug was calculated on the free base weight. The mice were infected intraperitoneally on day 0 with 5×10^4 erythrocytes parasitized with Plasmodium berghei (KBG-173 strain) from a donor mouse having a parasitemia between 5-10%. On days 3, 4 and 5 the test compounds were administered bid, spaced 6 hr apart, by oral gavage to the mice. Activity was measured by survival, with full activity defined as all animals living at day 31. Partial activity is defined as days of increased survival versus the infected non-treated controls. This in vivo model is a modification of the Thompson Test. For further description see Ager, A. L, Jr. Rodent Malaria Models. In Handbook of Experimental Pharmacology: Antimalarial Drugs. 1. 68/1; Peters, W., Richards, W. H. G., Eds.: Springer-Verlag: Berlin, 1984, pp. 231-33.

[4] = Plasmodium berghei, 744 h, 16 mg/kg/day, read-out: Number of mice alive at day 31 (converted)

| SMILES | IC50 [1] | IC50 [2] | Average Days Survival ([3]; 1 mg/kg/day) | Average Days Survival ([3]; 2 mg/kg/day) | Average Days Survival ([3]; 4 mg/kg/day) | Average Days Survival ([3]; 8 mg/kg/day) | Average Days Survival ([3]; 16 mg/kg/day) | Average Days Survival ([3]; 32 mg/kg/day) | responders at 1 mg/kg ([3]; Plasmodium berghei, 744 h, 1 mg/kg/day, read-out: Number of mice alive at day 31 (converted)) | responders at 2 mg/kg ([3]; Plasmodium berghei, 744 h, 2 mg/kg/day, read-out: Number of mice alive at day 31 (converted)) | responders at 4 mg/kg ([3]; Plasmodium berghei, 744 h, 4 mg/kg/day, read-out: Number of mice alive at day 31 (converted)) | responders at 8 mg/kg ([3]; Plasmodium berghei, 744 h, 8 mg/kg/day, read-out: Number of mice alive at day 31 (converted)) | responders at 16 mg/kg [3, 4] | responders at 32 mg/kg ([3]; Plasmodium berghei, 744 h, 32 mg/kg/day, read-out: Number of mice alive at day 31 (converted)) | Average Days Survival ([3]; 64 mg/kg/day) | responders at 64 mg/kg ([3]; Plasmodium berghei, 744 h, 64 mg/kg/day, read-out: Number of mice alive at day 31 (converted)) |
| --- | --- | --- | --- | --- | --- | --- | --- | --- | --- | --- | --- | --- | --- | --- | --- | --- |
| CC(C)(C)NCc1cc(C(C)(C)C)cc(-c2ccc(Cl)c(C(F)(F)F)c2)c1O.Cl [Example 23, 5-(tert-Butyl)-3-((tert-butylamino)methyl)-4′-chloro-3′-(trifluoromethyl)-[1,1′-biphenyl]-2-ol hydrochloride] | 21 nM | 9 nM | >15.3 days | >7 days | >31* Days | >31* Days | >31* Days | >31* Days | 42.9% | 85.7% | 100% | 100% | 100% | 100% |  |  |
| CC(C)(C)NCc1cc(-c2ccc(Cl)cc2)nc(-c2ccc(Cl)cc2)c1O.Cl [Example 56, 4-((tert-Butylamino)methyl)-2,6-bis(4-chlorophenyl)pyridin-3-ol hydrochloride] | 32 nM | 12 nM |  |  |  |  | >19.3 days |  |  |  |  |  | 71.4% |  | >20 days | 85.7% |

Source: US8962657B2, “Aryl derivatives and uses thereof” (Jacobus Pharmaceutical Company, Inc., priority 2012, dated 2015)
